# “Also recorded” adds a separate entry of the source.
# Legend:
# [1] = tested on: microdissected hair follicles (dermal sheath contraction); assay: Ex vivo hair follicle contraction assay (live imaging of microdissected follicles, high K+ depolarization); assay type: cell-based, mouse; conditions: preincubation with 200 μM ML7 HCl for 1 hour, follicles from P8 back skin, hydrochloride
# Description: Whether DS cells can functionally contract in a smooth muscle-like fashion through Ca2+-dependent MLCK activation was then explored. Isolated, short-term cultured DS cells were membrane depolarized by an extracellular K+ spike to activate voltage-gated Ca2+ channels in the presence of Fluo8 fluorescent Ca2+ indicator. The switch from high Na+ to high K+ media led to effective Ca2+ influx within 1.5 minutes (FIG. 3A). […] Next, whether the DS can functionally contract and compress intact hair follicles isolated by microdissection (FIG. 3C) was tested.
# Hair follicles were microdissected from P8 back skin under a Leica S6E stereomicroscope in PBS and collected in 24-well plates. Media was then changed to Krebs buffer+glucose with or without 200 μM ML7 HCl (Tocris) and incubated for 1 hour at 37° C. Single follicles were then transferred to a 6 cm petri dishes immersed in Krebs buffer+glucose and immobilized by embedding the hair shaft tips in a 5×5 mm piece of parafilm. Follicles were then imaged under brightfield illumination on a Leica inverted DM6000 microscope in an enclosed live cell chamber at 37° C. with 5% CO2. Images were taken with a 10× air lens with time intervals of 10 seconds. During imaging, media was exchanged for Krebs buffer+glucose with KCl supplanting NaCl and follicles were refocused when necessary, which took a duration of no more than 10 seconds. […]
# [2] = tested on: hair follicle regression (catagen) in back skin; assay: In vivo contraction inhibition (topical application on back skin during catagen); set-up: species or system mice; conditions: 1 mM in 20 μl DMSO, topical twice daily P13 to P19, back skin analysed at P20
# Description: To determine whether smooth muscle-like contraction is a main function of the DS to propagate hair follicle regression in vivo, the MLCK pathway was blocked by twice-daily topical application of ML7 throughout catagen on the back skin of mice (FIG. 3G). On the contralateral vehicle control side, follicles regressed normally into telogen with the DP niche relocated next to the SC reservoir (FIG. 3H). […] However, in contrast to ablated follicles, the DS as expected surrounds follicles including DP. […] Patches of lateral back skin measuring 1×1 cm of P13 mice (2 patches per mouse) were clipped and then shaved with a razor blade until no external hair shafts within patches remained. Vehicle-only control DMSO or ML7 HCl (Tocris) dissolved in an equal volume of DMSO (1 mM in 20 μl) was pipetted onto hairless patches and locally rubbed into the skin using a glass rod until visibly dry. Topical applications were performed twice daily from P13 to P19, once in the morning and once in the evening separated by 12 hours. Pieces of back skins including treated areas were then harvested at P20 for downstream analysis.
compound,measurement,setting,value
"Cl.O=S(=O)(c1cccc2c(I)cccc12)N1CCCNCC1 [ML7, hexahydro-1-[(5-iodo-1-naphthalenyl)sulfonyl]-1H-1,4-diazepine hydrochloride]",reduction of follicle widths in high K+ (follicle contraction),[1],effectively blocked
same,DP niche relocation to the stem cells,[2],the DP remains at the tip of stalled follicles
same,hair follicle regression into telogen (stalled follicles),"[2]; contralateral DMSO vehicle control, hydrochloride",striking failure of regression with long stalled follicles stranded deep in the dermis; also recorded: blocks hair follicle regression in vivo
